How the values were obtained:
[1] = target: T1, DinF-BH (Halalkalibacterium halodurans (Bacillus halodurans), UniProt Q9KAX3); assay: biochemical
T1 sequence (Q9KAX3 1-464): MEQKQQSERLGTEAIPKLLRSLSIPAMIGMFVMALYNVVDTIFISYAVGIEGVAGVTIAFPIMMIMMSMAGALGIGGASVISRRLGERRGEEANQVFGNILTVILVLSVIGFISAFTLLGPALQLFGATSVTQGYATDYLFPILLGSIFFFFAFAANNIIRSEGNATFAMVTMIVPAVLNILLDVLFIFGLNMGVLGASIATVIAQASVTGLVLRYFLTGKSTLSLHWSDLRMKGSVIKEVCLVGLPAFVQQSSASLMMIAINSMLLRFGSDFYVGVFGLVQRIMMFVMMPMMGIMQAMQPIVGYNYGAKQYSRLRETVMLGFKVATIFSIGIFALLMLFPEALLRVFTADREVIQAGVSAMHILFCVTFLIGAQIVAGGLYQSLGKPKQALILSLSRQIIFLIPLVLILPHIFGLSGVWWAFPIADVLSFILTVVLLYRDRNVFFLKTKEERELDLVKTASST
Experimental: (§1) [^3H]-R6G (2.7 Ci mmol^−1, 1.0 mCi ml^−1) was custom-synthesized by Moravek Biochemicals (Brea, California, USA). [^3H]-R6G binding assay was performed by using immobilized protein on Ni-NTA beads[31][42] as follows. Briefly, freshly purified protein (DinF-BH or NorM-NG) was mixed gently with pre-equilibrated Ni-NTA beads at 1 mg ml^−1 in buffers containing 20 mM Tris-HCl pH 8, 50 mM NaCl, 20% (v/v) glycerol, 0.02% (w/v) DDM, 1 mM TCEP (binding buffer) for >1 h at 4 °C. The mixture was centrifuged and the unbound material (supernatant) was discarded.
(§2) The beads were thoroughly washed, resuspended and aliquoted in the binding buffer. […] The samples were then transferred into micro-columns and centrifuged; the unbound material (flow-through) was discarded. The protein was eluted by using the binding buffer supplemented with 500 mM Imidazole. The radioactivity of the eluate was measured by liquid scintillation. […] All the experiments were performed in duplicate and repeated three times.

[2] = target: NorM-NG (Neisseria gonorrhoeae, UniProt Q5F9J8); assay: biochemical; format: binding
Sequence of NorM-NG (Q5F9J8 entry or part of it): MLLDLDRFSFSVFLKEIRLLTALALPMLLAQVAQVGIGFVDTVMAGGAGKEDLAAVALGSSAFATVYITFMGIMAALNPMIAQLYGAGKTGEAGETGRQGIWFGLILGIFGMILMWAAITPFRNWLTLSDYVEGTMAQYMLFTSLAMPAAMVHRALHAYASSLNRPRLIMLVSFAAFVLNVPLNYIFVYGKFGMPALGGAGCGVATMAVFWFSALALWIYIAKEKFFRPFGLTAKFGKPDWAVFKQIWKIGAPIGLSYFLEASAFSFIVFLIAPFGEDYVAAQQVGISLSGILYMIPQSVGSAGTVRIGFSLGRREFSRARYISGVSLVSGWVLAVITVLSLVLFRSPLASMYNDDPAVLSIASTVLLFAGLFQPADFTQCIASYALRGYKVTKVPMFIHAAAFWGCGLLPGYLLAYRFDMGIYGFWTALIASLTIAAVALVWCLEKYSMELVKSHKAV
Experimental: as §1, §2

SMILES | Ki [1] [µM] | Ki [2] [µM] | Kd [1] [µM] | Kd [2] [µM]
CC[n+]1c(-c2ccccc2)c2cc(N)ccc2c2ccc(N)cc21 [ethidium] | < 25 | < 25 |  | 
CC/N=c1\cc2oc3cc(NCC)c(C)cc3c(-c3ccccc3C(=O)OCC)c-2cc1C [R6G, rhodamine 6G] | < 10 | < 10 | ~5 | ~5

From PMC4866600, “Structural basis for the blockade of MATE multidrug efflux pumps” (Nature Communications, 2015)
